The test system of one test is BCWM.1 cells. Nature of the test: Western blot of apoptosis-related proteins in WM cells. In kind it is cell-based, human. The note with it: 14 h. As for the experimental part:
FIGS. 18A and 18B: FIGS. 18A and 18B show the effect of BMS-936564 on apoptosis-related proteins in WM cells. BCWM.1 cells were exposed to BMS-936564 for 14 h. Whole cell lysates were then harvested and subjected to western blot analysis using anti-caspase-9, anti-PARP and anti-tubulin antibodies (FIG. 18A), and anti-p-β catenin, anti-β-catenin, anti-p-GSK3β, and anti-tubulin antibodies (FIG. 18B).
Protein lysates were obtained from WM cells by homogenization under nondenaturing conditions in lysis buffer (Cell Signaling Technology, Beverly, Mass.) supplemented with 5 mM NaF, 2 mM Na3VO4, 1 mM PMSF ([…]), 5 μg/mL leupeptine, and 5 μg/mL aprotinin. Whole-cell lysates were subjected to sodium dodecyl sulfate-polyacrylamide gel electrophoresis (SDS-PAGE) and transferred to polyvinylidene difluoride (PVDF) membrane (Bio-Rad Laboratories, Hercules, Calif.). The antibodies used for immunoblotting included: anti-phospho(p)-ERK, anti-ERK, anti-p-Akt, anti-Akt, anti-p-Src, anti-Src, anti-caspase-9, anti-PARP, anti-p-β-catenin, anti-β-catenin, anti-p-GSK3, anti-GAPDH and anti-α-tubulin antibodies (Cell Signaling, Danvers, Mass.).
In general terms: A western blot detects proteins with antibodies after separation by electrophoresis.

Test [1] concerns WM cell lines (MWCL.1; BCWM.1). Briefly: [3H]-thymidine uptake proliferation assay in presence of primary WM BM-MSCs. The test is classed as cell-based, human. The note with it: 48 h. As for the experimental part: FIGS. 15A-15C: FIGS. 15A-15C show the effect of BMS-936564 on adhesion and proliferation of WM cells in vitro. WM cell lines were treated with BMS-936564 for 4 h and subsequently tested for adhesion to primary WM BM-MSCs. […] WM cell lines, MWCL.1 (FIG. 15B) and BCWN.1 (FIG. 15C) were cultured with control media and with BMS-936564 for 48 h in the presence or absence of primary WM BMMSCs. Cell proliferation was assessed using a [^3H]-thymidine uptake assay. Bars indicate standard deviations. P indicates P value. All data represent mean (±sd) of triplicate experiments. The CXCR4 antagonist, […] (Sigma-Aldrich, St. Louis, Mo.), was used as control.

Test [2] deals with C1013G/CXCR4-infected BCWM.1 cells. Nature of the test: Adhesion of C1013G/CXCR4-infected cells to primary WM BM-MSCs. The test is classed as cell-based, human. The settings on record: in the context of the BM microenvironment. As for the experimental part: FIGS. 21A-21D: FIGS. 21A-21D show BMS-936564 targets C1013G/CXCR4-mutated cells in WM cells in the context of BM. C1013G/CXCR4-infected BCWM.1 cells were tested for their migratory properties using a transwell migration assay. Cells were exposed to increasing concentrations of BMS-936564 and migration was determined after 5 h. The transwell migration assay was performed in presence of either primary WM BM-MSCs (FIG. 21A) or SDF-1α (FIG. 21B). In both cases, BMS-936564-dependent inhibition of WM cell migration was observed. C1013G/CXCR4-infected BCWM.1 cells were treated with BMS-936564/for 4 h and subsequently tested for adhesion to primary WM BM-MSCs. […] C1013G/CXCR4-infected BCWM.1 cells were cultured with control media and with BMS-936564 for 48 h in the presence or absence of primary WM BM-MSCs. Cell proliferation was assessed using [^3H]-thymidine uptake assay (FIG. 21D). Bars indicate standard deviations. P indicates P value. All data represent mean (±sd) of triplicate experiments. […].

The test system of test [3] is WM cell lines (BCWM.1; MWCL.1). Briefly: Transwell migration assay of WM cell lines. In kind it is cell-based, human. The note with it: increasing concentrations, 5 h. As for the experimental part:
FIGS. 14A and 14B: FIGS. 14A and 14B show the effect of BMS-936564 on migration of WM cells in vitro. WM cell lines (BCWM.1; MWCL.1) were tested for their migratory properties using a transwell migration assay. Cells were exposed to increasing concentrations of BMS-936564 and migration was determined after 5 h. The transwell migration assay was performed in presence of either primary WM BM-MSCs (FIG. 14A) or in presence of SDF-1α (FIG. 14B). In both cases, BMS-936564-dependent inhibition of WM cell migration was observed.

The subject of the next test is BCWM.1-mCherry+ cells. Nature of the test: In vivo homing and tumor progression of wild-type WM cells. On the set-up: species or system SCID/Bg mice. The method, then:
Serum was collected at the end of the study. […] Cell toxicity was performed by MTT. […] Bars indicate standard deviation.
Human serum IgM levels were determined by using a human IgM ELISA assay (ZeptoMetrix, Buffalo, N.Y.), according to the manufacturer's protocol.
SCID/Bg mice (n=5/group) were injected with BCWM.1 infected with either precision LentiORF/CXCR4/GFP (CXCR4^+)- or empty vector probe/RFP (control)-infected BCWM.1 cells. After three weeks, mice were euthanized and organs harvested. Hematoxylin-eosin staining, immunohistochemistry for human-CD20 and -CXCR4 were performed on explanted organs. Independent experiments were conducted to evaluate differences in survival (SCID/Bg mice, n=7/group). Similar studies were conducted using […]/CXCR4-mutated cells and control vector-infected cells (control cells). In vivo homing studies were performed using BCWM.1-mCherry^+ cells: cells were injected intravenously into […] mice and treated with either BMS-936564 or control antibody (10 mg/kg, intraperitoneally; 3-4 times per week for 3 weeks). The ability of BMS-936564 to modulate WM homing to BM, spleen and lymph nodes was evaluated ex vivo at the third week on explanted tissues, by using a fluorescence microscope (Nikon Eclipse 80i, Melville, N.Y.) (Roccaro et al., 2013).
The anti-WM activity of BMS-936564 was also tested in vivo using wild-type WM cells. BCWM.1-mCherry^+ cells were injected intravenously into SCID/Bg mice and treated mice with either BMS-936564 or control antibody.
As CXCR4 inhibition is thought to induce stem cell and tumor cell mobilization, it was hypothesized that BMS-936564 may also induce mobilization of WM cells leading to increased chemosensitivity to anti-WM agents. Accordingly, the effect of BMS-936564 in modulating tumor progression and WM cell dissemination to distant BM niches in vivo was evaluated as monotherapy or in combination with bortezomib.

Consider “BMS-936564: fully human anti-CXCR4 monoclonal antibody; VH SEQ ID NO: 25, VL SEQ ID NO: 29”, for which, in the test with BCWM.1 cells, the “caspase-9 and PARP cleavage” value is recorded as “increase”; the “p-GSK3-β, p-β-catenin and β-catenin” value is “increased phospho(p)-GSK3-β, and p-β-catenin up-regulation, leading to β-catenin degradation”. Moreover, the “WM cell proliferation in presence of WM BM-MSCs” value in test [1] was “inhibition”. In addition, the “targeting adhesion of CXCR4-mutated cells” value in test [2] is reported as “equally active”. Further, in test [3], the “migration of WM cell lines towards SDF-1” value was “inhibit migration” and the “migration of WM cell lines towards primary WM BM-MSCs” value is on record as “inhibit migration”. Moreover, in the test with BCWM.1-mCherry+ cells (BMS-936564 10 mg/kg i.p., bortezomib 0.5 mg/kg i.p. x2/week, P<0.05), the “tumor cells within the BM” value was “significant reduction”. In addition, the “serum IgM levels” value in the test on BCWM.1-mCherry+ cells (human IgM ELISA at end of study, P<0.05) was “significantly reduced”. Moreover, the “WM cell dissemination (BM, spleen and lymph nodes, immunofluorescence imaging ex vivo)” value with BCWM.1-mCherry+ cells (wild-type WM cells, 10 mg/kg intraperitoneally, vs control antibody) is reported as “inhibit WM cell dissemination”.

The record behind these values is patent US11220548B2, “Treatment of C1013G/CXCR4-associated Waldenstrom's macroglobulinemia with an anti-CXCR4 antibody” (BRISTOL-MYERS SQUIBB COMPANY, priority 2013, dated 2022).
